{
  "source": "patent US20210206770A1",
  "about": "“Co-Crystal of an Orally Available Janus Kinase Inhibitor” (Sandoz AG, priority 2017, published 2021)",
  "key": {"[1]": {"test": "Dissolution testing, Experiment 1: stirring in water at room temperature", "format": "physicochemical", "conditions": "5 mg Form A or same molar amount of co-crystal stirred at room temperature in 100 ml water", "text": "Experiment 1 clearly indicated significant and faster dissolution of the barcitinib lactic acid co-crystal of the invention compared to pure cristallin baritinib form A. However, no quantitative data could be derived from this setup."}, "[2]": {"test": "Dissolution testing, Experiment 2: photometric (310 nm) dissolution in phosphate buffer pH 6.8", "format": "physicochemical", "conditions": "50 mL phosphate buffer pH 6.8, 0.01% Tween 80, 37° C.", "procedure": "We used this to quantify baricitinib concentrations. Light absorption was measured with a Shimadzu UV-1800 double beam photometer at 310 nm in a lcm quartz glass cuvette.\nTo counterbalance the acidifying effect of the lactic acid from the barcitinib lactic acid co-crystal, the experiments were performed in a phosphate buffer solution at a constant pH of 6.8 ([…]; 0.01 mol/L). Furthermore, 0.01% Tween 80 was added to the buffer solution in order to avoid potential agglomeration during the dissolution test.\nExperiment 2: 20 mg of crystalline baricitinib free base Form A or 24.85 mg of the baricitinib lactic acid co-crystal of the present invention were stirred in a closed vessel in 50 mL of the buffer solution at 37° C. After 1, 5, 10, 15, 20, 30, 45 and 75 minutes filtered samples of the suspension were taken and diluted 1:4 with buffer solution to reach an absorption value within the calibration curve."}, "[3]": {"test": "Differential scanning calorimetry (thermal stability)", "format": "physicochemical", "conditions": "heating rate 10 K/min, up to melting at about 168-170° C.", "procedure": "The baricitinib lactic acid co-crystal according to the present invention was investigated by DSC, which was performed with a DSC 7 (Perkin-Elmer, Norwalk, Conn., USA) using a Pyris 2.0 software. Approximately 4±0.0005 mg sample (using a UM3 ultramicrobalance, Mettler, Greifensee, CH) were weighed into Al-Pans (25 μl) and sealed with a cover, which was perforated by a needle. Dry nitrogen was used as the purge gas (purge: 20 ml/min). Heating rate: 10 K/min."}, "[4]": {"conditions": "EPAR, cited from earlier work"}},
  "data": [
    {"molecule": "CCS(=O)(=O)N1CC(CC#N)(n2cc(-c3ncnc4[nH]ccc34)cn2)C1", "note": "[baricitinib free base Form A, 2-[1-(Ethylsulfonyl)-3-[4-(7H-pyrrolo[2,3-d]pyrimidin-4-yl)-1H-pyrazol-1-yl]azetidin-3-yl]acetonitrile, reference compound]", "values": [
      {"measurement": "dissolution in water", "setting": "[1]", "result": "no detectable dissolution"}
    ]},
    {"molecule": "CCS(=O)(=O)N1CC(CC#N)(n2cc(-c3ncnc4[nH]ccc34)cn2)C1", "note": "[baricitinib lactic acid co-crystal]", "values": [
      {"measurement": "dissolution in water", "setting": "[1]", "result": "a detectable and significant amount dissolved within minutes"},
      {"measurement": "concentration of dissolved baricitinib at 1 minute compared to baricitinib free base form A", "setting": "[2]; 1 minute", "result": "three time higher"},
      {"measurement": "dissolution rate compared to baricitinib free base form A", "setting": "[2]; FIG. 7", "result": "dissolved more quickly"},
      {"measurement": "thermal stability (DSC)", "setting": "[3]", "result": "neither phase changes nor desolvation events are detectable until the sample melts"}
    ]},
    {"molecule": "CCS(=O)(=O)N1CC(CC#N)(n2cc(-c3ncnc4[nH]ccc34)cn2)C1", "note": "[baricitinib, 2-[1-(Ethylsulfonyl)-3-[4-(7H-pyrrolo[2,3-d]pyrimidin-4-yl)-1H-pyrazol-1-yl]azetidin-3-yl]acetonitrile]", "values": [
      {"measurement": "solubility in 0.1 N HCl", "setting": "[4]; 0.1 N HCl", "result": "only slightly soluble"},
      {"measurement": "solubility in water", "setting": "[4]; water", "result": "practically insoluble"}
    ]}
  ]
}
